US20140024527A1, “HERBICIDAL PYRAZINONES” (E I DU DE NEMOURS AND COMPANY, priority 2011, published 2014)

Tests used:
Assay in all cases: Test A preemergence
Type in all cases: in vivo
Settings in all cases: 0 to 100 scale, 0 no effect, 100 complete control, approx. 10 days
[1] = system: giant foxtail (Setaria faberii)
How it was run: (§1)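 Scores reflect visual plant response on a scale from 0 (no effect) to 100 (complete control) after approximately 10 greenhouse days. Pre- and postemergence sprays of solvent/surfactant-formulated chemical were applied at the same time, the latter at the one- to two-leaf stage.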

[2] = system: velvetleaf (Abutilon theophrasti)
How it was run: as §1

[3] = system: pigweed (Amaranthus retroflexus)
How it was run: as §1

[4] = system: morningglory (Ipomoea spp.)
How it was run: as §1

[5] = system: corn (Zea mays)
How it was run: as §1

[6] = system: barnyardgrass (Echinochloa crus-galli)
How it was run: as §1

[7] = system: large crabgrass (Digitaria sanguinalis)
How it was run: as §1

Row | SMILES | Plant response rating, Foxtail, Giant ([1]; 125 g ai/ha) | Plant response rating, Foxtail, Giant ([1]; 500 g ai/ha) | Plant response rating, Velvetleaf ([2]; 125 g ai/ha) | Plant response rating, Velvetleaf ([2]; 500 g ai/ha) | Plant response rating, Pigweed ([3]; 125 g ai/ha) | Plant response rating, Pigweed ([3]; 500 g ai/ha) | Plant response rating, Morningglory ([4]; 125 g ai/ha) | Plant response rating, Morningglory ([4]; 500 g ai/ha) | Plant response rating, Corn ([5]; 125 g ai/ha) | Plant response rating, Corn ([5]; 500 g ai/ha) | Plant response rating, Barnyardgrass ([6]; 125 g ai/ha) | Plant response rating, Barnyardgrass ([6]; 500 g ai/ha) | Plant response rating, Crabgrass, Large ([7]; 125 g ai/ha) | Plant response rating, Crabgrass, Large ([7]; 500 g ai/ha)
1 | COCCn1c(-c2cccc(F)c2)c(Cl)nc(C(=O)C2=C(O)CCCC2=O)c1=O [Compound 4, 5-chloro-6-(3-fluorophenyl)-3-[(2-hydroxy-6-oxo-1-cyclohexen-1-yl)carbonyl]-1-(2-methoxyethyl)-2(1H)pyrazinone] | 0 | 30 | 40 | 90 | 60 | 100 | 10 | 70 | 0 | 0 | 0 | 70 | 80 | 100
2 | COCCn1c(-c2cc(F)cc(F)c2)c(Cl)nc(C(=O)C2=C(O)CCCC2=O)c1=O [Compound 6, 5-chloro-6-(3,5-difluorophenyl)-3-[(2-hydroxy-6-oxo-1-cyclohexen-1-yl)carbonyl]-1-(2-methoxyethyl)-2(1H)-pyrazinone] | 20 | 70 | 50 | 100 | 50 | 90 | 40 | 80 | 0 | 20 | 20 | 90 | 90 | 100
